Target: T1, small-conductance Ca2+-activated K+ channels (SK channels, subtype 2) (Homo sapiens, UniProt Q9H2S1)
T1 construct: expressed in transfected cells; host or cells: HEK293
Test: whole-cell patch-clamp of ionic current through SK2 channels in HEK293 cells (SC100)
Type: cell-based
Details: whole-cell patch-clamp, HEK293 cells expressing SK2 channels; concentration that increases the basal current by 100%
Procedure, shortened: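 Whole-cell patch-clamp recording of current in HEK293 cells expressing SK2 channels. SC100 is the compound concentration that increases basal current by 100%.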

## COC(=O)NCc1cc(NC2CCC(F)(F)CC2)nc(-n2ccc(CF)n2)c1 [NSSy5653, methyl ((2-((4,4-difluorocyclohexyl)amino)-6-(3-(fluoromethyl)-1H-pyrazol-1-yl)pyridin-4-yl)methyl)carbamate]
  SC100 (μM): ++ (++ means 200 nM-1000 nM)

## Cc1csc(-c2cc(N3CCOCC3)cc(NC3CC=CCC3)n2)n1 (stereo not drawn) [NSSy5655, N-(cyclohex-3-en-1-yl)-6-(4-methylthiazol-2-yl)-4-morpholinopyridin-2-amine]
  SC100 (μM): ++ (++ means 200 nM-1000 nM)

## Cc1ccn(-c2nc(NC3CCC(F)CC3)cc(N3CCOCC3)n2)n1 (stereo not drawn) [NSSy5662]
  SC100 (μM): + (+ means >1 uM)

## Cc1ccn(-c2nc(NC3CC=CCC3)cc(N3CCOCC3)n2)n1 (stereo not drawn) [NSSy5663]
  SC100 (μM): + (+ means >1 uM)

## Cc1csc(-c2nc(NC3CCC(F)(F)CC3)cc(N3CC4(COC4)C3)n2)n1 [NSSy5664]
  SC100 (μM): ++ (++ means 200 nM-1000 nM)

## Cc1ccn(-c2nc(NC3CC=CCC3)cc(N3CC4(COC4)C3)n2)n1 (stereo not drawn) [NSSy5670]
  SC100 (μM): ++ (++ means 200 nM-1000 nM)

## COC(=O)N(C)C1CC(Oc2cc(NC3CCC(F)(F)CC3)nc(-n3ccc(C)n3)n2)C1 (stereo not drawn) [NSSy5672, methyl (3-((6-((4,4-difluorocyclohexyl)amino)-2-(3-methyl-1H-pyrazol-1-yl)pyrimidin-4-yl)oxy)cyclobutyl)(methyl)carbamate]
  SC100 (μM): ++ (++ means 200 nM-1000 nM)

## Cc1csc(-c2cc(N3CCN(C)C(=O)C3)cc(NC3CCC(F)(F)CC3)n2)n1 [NSSy5674, 4-(2-((4,4-difluorocyclohexyl)amino)-6-(4-methylthiazol-2-yl)pyridin-4-yl)-1-methylpiperazin-2-one]
  SC100 (μM): +++ (+++ means <200 nM)

## Cc1csc(-c2cc(N3CC4(COC4)C3)cc(NC3CCC(F)(F)CC3)n2)n1 [NSSy5675]
  SC100 (μM): +++ (+++ means <200 nM)

## Cc1ccn(-c2cc(C(O)c3cccnc3)cc(NC3CCC(F)(F)CC3)n2)n1 (stereo not drawn) [NSSy5676, (2-((4,4-difluorocyclohexyl)amino)-6-(3-methyl-1H-pyrazol-1-yl)pyridin-4-yl)(pyridin-3-yl)methanol]
  SC100 (μM): +++ (+++ means <200 nM)

## Cc1csc(-c2cc(N3CC(N(C)C)C3)cc(NC3CCC(F)(F)CC3)n2)n1 [NSSy5677]
  SC100 (μM): ++ (++ means 200 nM-1000 nM)

## Cc1csc(-c2cc(OCc3cn(C)nn3)cc(NC3CCC(F)(F)CC3)n2)n1 [NSSy5680]
  SC100 (μM): +++ (+++ means <200 nM)

## Cc1ccn(-c2cc(OCc3nnc(C)o3)cc(NC3CCC(F)(F)CC3)n2)n1 [NSSy5681]
  SC100 (μM): + (+ means >1 uM)

## Cc1csc(-c2cc(OCc3ncn(C)n3)cc(NC3CCC(F)(F)CC3)n2)n1 [NSSy5686]
  SC100 (μM): ++ (++ means 200 nM-1000 nM)

## Cc1csc(-c2cc(N3CC(C)(O)C3)cc(NC3CCC(F)(F)CC3)n2)n1 [NSSy5687]
  SC100 (μM): ++ (++ means 200 nM-1000 nM)

## Cc1csc(-c2cc(N3CCOCC3)cc(NC3CCC(F)CC3)n2)n1 (stereo not drawn) [NSSy5688]
  SC100 (μM): ++ (++ means 200 nM-1000 nM)

## Cc1csc(-c2nc(NC3CCC(F)(F)CC3)cc(OCc3ncnn3C)n2)n1 [NSSy5689]
  SC100 (μM): + (+ means >1 uM)

## Cc1csc(-c2nc(NC3CCC(F)(F)CC3)cc(OCc3ncn(C)n3)n2)n1 [NSSy5690]
  SC100 (μM): ++ (++ means 200 nM-1000 nM)

## Cc1ccn(-c2nc(NC3CCC(F)CC3)cc(N3CC4(COC4)C3)n2)n1 (stereo not drawn) [NSSy5691]
  SC100 (μM): + (+ means >1 uM)

## Cc1csc(-c2cc(OCc3nnc(C)o3)cc(NC3CCC(F)(F)CC3)n2)n1 [NSSy5694]
  SC100 (μM): +++ (+++ means <200 nM)

## Cc1csc(-c2cc(OCc3ncnn3C)cc(NC3CCC(F)(F)CC3)n2)n1 [NSSy5695]
  SC100 (μM): ++ (++ means 200 nM-1000 nM)

## Cc1csc(-c2nc(NC3CCC(F)CC3)cc(N3CCOCC3)n2)n1 (stereo not drawn) [NSSy5699, N-(4-fluorocyclohexyl)-2-(4-methylthiazol-2-yl)-6-morpholinopyrimidin-4-amine]
  SC100 (μM): + (+ means >1 uM)

## Cc1csc(-c2nc(NC3CC=CCC3)cc(N3CCOCC3)n2)n1 (stereo not drawn) [NSSy5703, N-(cyclohex-3-en-1-yl)-2-(4-methylthiazol-2-yl)-6-morpholinopyrimidin-4-amine]
  SC100 (μM): + (+ means >1 uM)

## Cc1csc(-c2nc(NC3CCC(F)CC3)cc(OC3CN(C(=O)C(C)C)C3)n2)n1 (stereo not drawn) [NSSy5709]
  SC100 (μM): ++ (++ means 200 nM-1000 nM)

## COC(=O)N1CC(Oc2cc(NC3CCC(F)CC3)nc(-c3nc(C)cs3)n2)C1 (stereo not drawn) [NSSy5710]
  SC100 (μM): ++ (++ means 200 nM-1000 nM)

## CN(C)C1CN(c2cc(Nc3ccc(F)cc3)nc(-n3ccc(CF)n3)c2)C1 [NSSy5713]
  SC100 (μM): + (+ means >1 uM)

## FCc1csc(-c2nc(NC3CCC(F)(F)CC3)cc(N3CC4(COC4)C3)n2)n1 [NSSy5715, N-(4,4-difluorocyclohexyl)-2-(4-(fluoromethyl)thiazol-2-yl)-6-(2-oxa-6-azaspiro[3.3]heptan-6-yl)pyrimidin-4-amine]
  SC100 (μM): ++ (++ means 200 nM-1000 nM)

## Cc1csc(-c2cc(OCc3cnnn3C)cc(NC3CCC(F)(F)CC3)n2)n1 [NSSy5717]
  SC100 (μM): +++ (+++ means <200 nM)

## Cc1ccn(-c2cc(N3CC(C)(O)C3)cc(NC3CCC(F)(F)CC3)n2)n1 [NSSy5721]
  SC100 (μM): ++ (++ means 200 nM-1000 nM)

## CCC(=O)N1CC(Oc2cc(NC3CCC(F)(F)CC3)nc(-c3nc(C)cs3)n2)C1 [NSSy5726]
  SC100 (μM): ++ (++ means 200 nM-1000 nM)

## COC(=O)N(C)C1CC(Oc2cc(NC3CCC(F)(F)CC3)nc(-c3nc(C)cs3)n2)C1 (stereo not drawn) [NSSy5730]
  SC100 (μM): ++ (++ means 200 nM-1000 nM)

## Cc1ccn(-c2cc(OCc3ncnn3C)cc(NC3CCC(F)(F)CC3)n2)n1 [NSSy5737]
  SC100 (μM): ++ (++ means 200 nM-1000 nM)

## Cc1csc(-c2nc(NC3CCC(F)(F)CC3)cc(OC3CC(C)(O)C3)n2)n1 (stereo not drawn) [NSSy5740]
  SC100 (μM): ++ (++ means 200 nM-1000 nM)

## COC(=O)N1CC(Oc2cc(NC3CCC(F)CC3)nc(-n3ccc(C)n3)n2)C1 (stereo not drawn) [NSSy5741]
  SC100 (μM): + (+ means >1 uM)

## Cc1ccn(-c2cc(N3CCOCC3)cc(NC3CC=CCC3)n2)n1 (stereo not drawn) [NSSy5759, N-(cyclohex-3-en-1-yl)-6-(3-methyl-1H-pyrazol-1-yl)-4-morpholino pyridin-2-amine]
  SC100 (μM): ++ (++ means 200 nM-1000 nM)

## Cc1ccn(-c2nc(NC3CC=CCC3)cc(OC3CN(C(=O)C(C)C)C3)n2)n1 (stereo not drawn) [NSSy5762]
  SC100 (μM): ++ (++ means 200 nM-1000 nM)

## Cc1ccn(-c2cc(N3CC(N(C)C)C3)cc(NC3CCC(F)(F)CC3)n2)n1 [NSSy5763]
  SC100 (μM): ++ (++ means 200 nM-1000 nM)

## Cc1ccn(-c2nc(NC3CCC(F)CC3)cc(OC3CN(C(=O)C(C)C)C3)n2)n1 (stereo not drawn) [NSSy5765]
  SC100 (μM): ++ (++ means 200 nM-1000 nM)

## Cc1csc(-c2nc(NC3CCC(F)(F)CC3)cc(N3CCN4C(=O)OCC4C3)n2)n1 (stereo not drawn) [NSSy5774]
  SC100 (μM): ++ (++ means 200 nM-1000 nM)

## COCc1cc(NC2CCC(F)(F)CC2)nc(-c2nc(C)cs2)n1 [NSSy5779, N-(4,4-difluorocyclohexyl)-6-(methoxymethyl)-2-(4-methylthiazol-2-yl)pyrimidin-4-amine]
  SC100 (μM): ++ (++ means 200 nM-1000 nM)

## COC(=O)N1CC(Oc2cc(NC3CC=CCC3)nc(-n3ccc(C)n3)n2)C1 (stereo not drawn) [NSSy5786]
  SC100 (μM): ++ (++ means 200 nM-1000 nM)

## Cc1csc(-c2nc(NC3CCC(F)(F)CC3)cc(N3CCC(C4COC4)CC3)n2)n1 [NSSy5787]
  SC100 (μM): ++ (++ means 200 nM-1000 nM)

## COCC1CN(c2cc(NC3CCC(F)(F)CC3)nc(-c3nc(C)cs3)n2)CCO1 (stereo not drawn) [NSSy5789]
  SC100 (μM): +++ (+++ means <200 nM)

## Cc1csc(-c2nc(NC3CCC(F)(F)CC3)cc(N3CCN(C4COC4)CC3)n2)n1 [NSSy5792]
  SC100 (μM): ++ (++ means 200 nM-1000 nM)

## COC[C@@H]1CN(c2cc(NC3CCC(F)(F)CC3)nc(-c3nc(C)cs3)n2)CCO1 [NSSy5795]
  SC100 (μM): ++ (++ means 200 nM-1000 nM)

## COC[C@H]1CN(c2cc(NC3CCC(F)(F)CC3)nc(-c3nc(C)cs3)n2)CCO1 [NSSy5796]
  SC100 (μM): +++ (+++ means <200 nM)

## COCC1CN(c2cc(NC3CCC(F)(F)CC3)nc(-c3nc(C)cs3)c2)CCO1 (stereo not drawn) [NSSy5807]
  SC100 (μM): +++ (+++ means <200 nM)

## Cc1cc(C)n(-c2cc3c(ncn3C3COC3)c(NC3CCC(F)(F)CC3)n2)n1 [NSSy5808, N-(4,4-difluorocyclohexyl)-6-(3,5-dimethyl-1H-pyrazol-1-yl)-1-(oxetan-3-yl)-1H-imidazo[4,5-c]pyridin-4-amine]
  SC100 (μM): ++ (++ means 200 nM-1000 nM)

## Cc1csc(-c2cc(N3CCC(C4COC4)CC3)cc(NC3CCC(F)(F)CC3)n2)n1 [NSSy5815]
  SC100 (μM): ++ (++ means 200 nM-1000 nM)

## COCc1cc(NC2CCC(F)(F)CC2)nc(-c2nc(C)co2)n1 [NSSy5818, N-(4,4-difluorocyclohexyl)-6-(methoxymethyl)-2-(4-methyloxazol-2-yl)pyrimidin-4-amine]
  SC100 (μM): + (+ means >1 uM)

## Cc1csc(-c2cc(N3CCN(C4COC4)CC3)cc(NC3CCC(F)(F)CC3)n2)n1 [NSSy5819]
  SC100 (μM): ++ (++ means 200 nM-1000 nM)

## Cc1csc(-c2cc(N3CCN4C(=O)OCC4C3)cc(NC3CCC(F)(F)CC3)n2)n1 (stereo not drawn) [NSSy5824]
  SC100 (μM): +++ (+++ means <200 nM)

## Cc1ccn(-c2cc(C#N)cc(NC3CCC(F)(F)CC3)n2)n1 [NSSy5826]
  SC100 (μM): ++ (++ means 200 nM-1000 nM)

## Cc1ccn(-c2cc(CO)cc(NC3CCC(F)(F)CC3)n2)n1 [NSSy5827]
  SC100 (μM): ++ (++ means 200 nM-1000 nM)

From US10774064B2 (Cadent Therapeutics, Inc., priority 2016, dated 2020)
